Source: ChEMBL document CHEMBL3616395, “Discovery of 4-arylamido 3-methyl isoxazole derivatives as novel FMS kinase inhibitors” (Eur J Med Chem, 2015)
The source made the active and inactive calls. The calls are words filed in the database; no cut-off is given here.

Key:
[1] = molecular target: RAC-alpha serine/threonine-protein kinase (Homo sapiens) (UniProt P31749); assay: Inhibition of AKT1 (unknown origin) at 10 uM after 40 mins by scintillation counting analysis
[2] = molecular target: ALK tyrosine kinase receptor (Homo sapiens) (UniProt Q9UM73); assay: Inhibition of ALK (unknown origin) at 10 uM after 40 mins by scintillation counting analysis
Sequence of ALK tyrosine kinase receptor (Homo sapiens) (Q9UM73 19-1620 limits assumed): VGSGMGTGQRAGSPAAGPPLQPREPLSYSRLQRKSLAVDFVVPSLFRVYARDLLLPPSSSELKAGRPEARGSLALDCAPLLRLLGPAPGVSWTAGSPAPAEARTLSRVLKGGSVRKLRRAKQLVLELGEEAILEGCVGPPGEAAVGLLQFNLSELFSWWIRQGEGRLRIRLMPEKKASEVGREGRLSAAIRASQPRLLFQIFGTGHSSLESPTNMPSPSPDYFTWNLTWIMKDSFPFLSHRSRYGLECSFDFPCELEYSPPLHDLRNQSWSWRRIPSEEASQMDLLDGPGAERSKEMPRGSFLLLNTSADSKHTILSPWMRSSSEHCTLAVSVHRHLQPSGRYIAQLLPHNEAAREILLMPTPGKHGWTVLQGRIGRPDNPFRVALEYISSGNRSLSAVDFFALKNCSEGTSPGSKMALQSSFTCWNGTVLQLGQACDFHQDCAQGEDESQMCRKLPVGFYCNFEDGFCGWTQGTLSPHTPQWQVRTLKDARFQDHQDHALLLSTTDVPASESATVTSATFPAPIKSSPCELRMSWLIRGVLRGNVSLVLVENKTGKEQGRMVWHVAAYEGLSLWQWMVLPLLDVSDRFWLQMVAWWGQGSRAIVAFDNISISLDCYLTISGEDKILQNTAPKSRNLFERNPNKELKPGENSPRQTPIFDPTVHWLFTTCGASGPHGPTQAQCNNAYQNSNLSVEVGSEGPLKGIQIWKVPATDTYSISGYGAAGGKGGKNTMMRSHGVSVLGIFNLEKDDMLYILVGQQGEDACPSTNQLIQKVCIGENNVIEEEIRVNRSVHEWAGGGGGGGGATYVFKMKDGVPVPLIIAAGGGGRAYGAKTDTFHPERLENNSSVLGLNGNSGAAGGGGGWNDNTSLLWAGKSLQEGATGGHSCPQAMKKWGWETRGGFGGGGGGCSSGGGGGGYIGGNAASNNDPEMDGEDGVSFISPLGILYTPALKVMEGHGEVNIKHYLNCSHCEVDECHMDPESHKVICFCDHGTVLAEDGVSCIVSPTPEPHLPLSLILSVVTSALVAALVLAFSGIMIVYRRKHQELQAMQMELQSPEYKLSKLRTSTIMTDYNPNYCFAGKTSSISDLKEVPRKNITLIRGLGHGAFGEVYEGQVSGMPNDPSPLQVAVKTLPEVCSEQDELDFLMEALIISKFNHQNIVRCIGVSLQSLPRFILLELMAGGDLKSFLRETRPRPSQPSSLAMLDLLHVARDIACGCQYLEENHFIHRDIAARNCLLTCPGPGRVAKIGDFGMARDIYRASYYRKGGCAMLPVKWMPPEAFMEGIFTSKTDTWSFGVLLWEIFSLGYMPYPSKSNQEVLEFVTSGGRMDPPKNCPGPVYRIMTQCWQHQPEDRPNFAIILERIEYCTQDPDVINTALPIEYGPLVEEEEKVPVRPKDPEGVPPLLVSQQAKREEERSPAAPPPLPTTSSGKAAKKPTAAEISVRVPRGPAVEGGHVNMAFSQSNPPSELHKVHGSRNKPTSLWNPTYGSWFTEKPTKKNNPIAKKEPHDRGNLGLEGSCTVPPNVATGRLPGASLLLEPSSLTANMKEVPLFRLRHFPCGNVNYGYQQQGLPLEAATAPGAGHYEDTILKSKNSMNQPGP

[3] = molecular target: Aurora kinase A (Homo sapiens) (UniProt O14965); assay: Inhibition of Aurora A (unknown origin) at 10 uM after 40 mins by scintillation counting analysis
[4] = molecular target: Serine/threonine-protein kinase B-raf (Homo sapiens, UniProt P15056); assay: Inhibition of BRAF (unknown origin) at 10 uM after 40 mins by scintillation counting analysis
Sequence of Serine/threonine-protein kinase B-raf (P15056 whole entry): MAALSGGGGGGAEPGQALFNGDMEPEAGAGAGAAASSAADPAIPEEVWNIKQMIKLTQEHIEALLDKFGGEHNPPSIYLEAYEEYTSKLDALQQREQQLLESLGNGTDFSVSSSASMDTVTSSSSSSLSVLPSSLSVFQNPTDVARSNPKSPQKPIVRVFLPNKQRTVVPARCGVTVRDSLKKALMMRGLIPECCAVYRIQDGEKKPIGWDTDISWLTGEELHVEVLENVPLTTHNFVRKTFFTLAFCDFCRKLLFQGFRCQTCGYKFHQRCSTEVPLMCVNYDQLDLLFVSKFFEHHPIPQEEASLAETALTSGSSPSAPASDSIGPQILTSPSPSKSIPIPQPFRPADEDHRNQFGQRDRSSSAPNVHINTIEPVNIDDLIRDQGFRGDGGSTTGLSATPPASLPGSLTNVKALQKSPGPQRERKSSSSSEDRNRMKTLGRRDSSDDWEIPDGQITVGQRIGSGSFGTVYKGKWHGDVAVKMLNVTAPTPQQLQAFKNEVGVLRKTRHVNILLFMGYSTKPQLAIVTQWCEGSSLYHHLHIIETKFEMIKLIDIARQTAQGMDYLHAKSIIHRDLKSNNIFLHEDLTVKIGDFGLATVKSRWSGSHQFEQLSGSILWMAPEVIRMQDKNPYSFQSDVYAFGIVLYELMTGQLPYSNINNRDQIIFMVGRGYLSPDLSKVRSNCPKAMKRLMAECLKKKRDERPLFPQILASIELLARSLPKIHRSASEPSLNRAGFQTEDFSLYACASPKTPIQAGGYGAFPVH

[5] = test system: Serine/threonine-protein kinase B-raf (Homo sapiens), P15056 [V600E]; assay: Inhibition of BRAF V599E mutant (unknown origin) at 10 uM after 40 mins by scintillation counting analysis
[6] = molecular target: Mast/stem cell growth factor receptor Kit (Homo sapiens) (UniProt P10721); assay: Inhibition of c-Kit (unknown origin) at 10 uM after 40 mins by scintillation counting analysis
[7] = molecular target: Hepatocyte growth factor receptor (Homo sapiens) (UniProt P08581); assay: Inhibition of c-MET (unknown origin) at 10 uM after 40 mins by scintillation counting analysis
[8] = molecular target: Cyclin-dependent kinase 1/cyclin B (Homo sapiens) (UniProt P06493+P14635+Q8WWL7+O95067); assay: Inhibition of CDK1/cyclin B (unknown origin) at 10 uM after 40 mins by scintillation counting analysis; assay type: protein-complex assay
[9] = molecular target: Epidermal growth factor receptor (Homo sapiens) (UniProt P00533); assay: Inhibition of EGFR (unknown origin) at 10 uM after 40 mins by scintillation counting analysis
Sequence of Epidermal growth factor receptor (Homo sapiens) (P00533 whole entry): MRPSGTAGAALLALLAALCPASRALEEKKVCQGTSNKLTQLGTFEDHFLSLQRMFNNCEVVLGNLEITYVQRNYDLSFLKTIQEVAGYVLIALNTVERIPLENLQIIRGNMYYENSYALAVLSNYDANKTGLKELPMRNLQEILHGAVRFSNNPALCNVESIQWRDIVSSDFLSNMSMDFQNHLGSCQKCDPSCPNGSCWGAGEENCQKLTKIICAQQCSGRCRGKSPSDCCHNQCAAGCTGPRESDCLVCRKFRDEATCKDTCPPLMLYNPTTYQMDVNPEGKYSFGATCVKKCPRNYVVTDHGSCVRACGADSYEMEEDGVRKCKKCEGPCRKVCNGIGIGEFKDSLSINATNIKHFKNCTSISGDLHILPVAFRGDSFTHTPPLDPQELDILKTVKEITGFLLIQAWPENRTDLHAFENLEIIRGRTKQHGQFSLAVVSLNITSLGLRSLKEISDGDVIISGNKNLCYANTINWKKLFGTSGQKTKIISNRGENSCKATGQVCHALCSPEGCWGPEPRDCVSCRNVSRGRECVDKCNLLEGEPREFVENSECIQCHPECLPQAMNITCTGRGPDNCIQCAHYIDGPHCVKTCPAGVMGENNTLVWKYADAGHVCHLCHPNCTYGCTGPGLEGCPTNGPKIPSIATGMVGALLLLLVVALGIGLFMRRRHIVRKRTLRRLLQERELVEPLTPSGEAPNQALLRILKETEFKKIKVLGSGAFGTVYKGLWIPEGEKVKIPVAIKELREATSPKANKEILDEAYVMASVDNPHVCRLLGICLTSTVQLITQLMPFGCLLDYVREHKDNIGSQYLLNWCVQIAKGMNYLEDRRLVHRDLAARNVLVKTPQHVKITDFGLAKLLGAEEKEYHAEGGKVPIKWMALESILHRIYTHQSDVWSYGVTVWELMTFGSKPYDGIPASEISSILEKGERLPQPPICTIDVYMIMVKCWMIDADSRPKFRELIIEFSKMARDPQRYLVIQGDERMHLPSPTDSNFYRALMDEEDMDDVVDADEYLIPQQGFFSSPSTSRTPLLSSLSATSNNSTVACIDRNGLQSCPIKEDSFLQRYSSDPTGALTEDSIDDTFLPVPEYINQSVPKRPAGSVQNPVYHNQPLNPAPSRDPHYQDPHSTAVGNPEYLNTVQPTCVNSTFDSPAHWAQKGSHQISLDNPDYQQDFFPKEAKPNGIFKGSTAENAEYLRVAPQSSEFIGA

[10] = molecular target: Mitogen-activated protein kinase 3 (Homo sapiens) (UniProt P27361); assay: Inhibition of ErK1 (unknown origin) at 10 uM after 40 mins by scintillation counting analysis
[11] = molecular target: Focal adhesion kinase 1 (Homo sapiens) (UniProt Q05397); assay: Inhibition of FAK (unknown origin) at 10 uM after 40 mins by scintillation counting analysis
[12] = molecular target: Fibroblast growth factor receptor 2 (Homo sapiens) (UniProt P21802); assay: Inhibition of FGFR2 (unknown origin) at 10 uM after 40 mins by scintillation counting analysis
[13] = molecular target: Fibroblast growth factor receptor 3 (Homo sapiens) (UniProt P22607); assay: Inhibition of FGFR3 (unknown origin) at 10 uM after 40 mins by scintillation counting analysis
[14] = molecular target: Receptor-type tyrosine-protein kinase FLT3 (Homo sapiens) (UniProt P36888); assay: Inhibition of FLT3 (unknown origin) at 10 uM after 40 mins by scintillation counting analysis
[15] = molecular target: T1, Macrophage colony-stimulating factor 1 receptor (Homo sapiens, UniProt P07333); assay: Inhibition of FMS (unknown origin) at 10 uM after 40 mins by scintillation counting analysis
T1 sequence (P07333 whole entry): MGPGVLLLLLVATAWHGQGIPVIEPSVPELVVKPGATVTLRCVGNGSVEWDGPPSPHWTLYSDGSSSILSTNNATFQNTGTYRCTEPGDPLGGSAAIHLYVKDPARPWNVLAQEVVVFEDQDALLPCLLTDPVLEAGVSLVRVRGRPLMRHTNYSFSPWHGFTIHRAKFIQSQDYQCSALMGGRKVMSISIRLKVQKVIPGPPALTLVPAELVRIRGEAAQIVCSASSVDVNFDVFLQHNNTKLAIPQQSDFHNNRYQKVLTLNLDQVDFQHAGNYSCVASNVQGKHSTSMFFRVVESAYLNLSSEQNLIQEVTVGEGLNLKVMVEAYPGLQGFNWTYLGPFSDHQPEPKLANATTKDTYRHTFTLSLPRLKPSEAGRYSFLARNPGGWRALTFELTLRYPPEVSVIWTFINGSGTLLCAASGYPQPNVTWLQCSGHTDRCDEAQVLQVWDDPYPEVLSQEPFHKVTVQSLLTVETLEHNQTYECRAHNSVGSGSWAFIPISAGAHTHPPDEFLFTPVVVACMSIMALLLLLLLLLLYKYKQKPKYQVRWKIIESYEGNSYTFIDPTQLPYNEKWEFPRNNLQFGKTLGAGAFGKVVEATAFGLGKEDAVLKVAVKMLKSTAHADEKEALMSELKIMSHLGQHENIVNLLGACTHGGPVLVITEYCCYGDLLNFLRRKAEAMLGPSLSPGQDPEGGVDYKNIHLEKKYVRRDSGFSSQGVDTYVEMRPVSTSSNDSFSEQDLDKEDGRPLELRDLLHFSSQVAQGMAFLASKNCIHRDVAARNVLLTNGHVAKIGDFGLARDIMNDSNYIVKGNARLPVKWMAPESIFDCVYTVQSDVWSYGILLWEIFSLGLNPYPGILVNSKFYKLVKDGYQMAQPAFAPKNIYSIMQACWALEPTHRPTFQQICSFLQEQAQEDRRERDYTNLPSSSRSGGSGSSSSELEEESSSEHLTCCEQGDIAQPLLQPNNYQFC

[16] = molecular target: Tyrosine-protein kinase JAK3 (Homo sapiens) (UniProt P52333); assay: Inhibition of Jak3 (unknown origin) at 10 uM after 40 mins by scintillation counting analysis
[17] = molecular target: Mitogen-activated protein kinase 10 (Homo sapiens) (UniProt P53779); assay: Inhibition of JNK3 (unknown origin) at 10 uM after 40 mins by scintillation counting analysis
[18] = molecular target: Vascular endothelial growth factor receptor 2 (Homo sapiens) (UniProt P35968); assay: Inhibition of VEGFR2 (unknown origin) at 10 uM after 40 mins by scintillation counting analysis
[19] = molecular target: Dual specificity mitogen-activated protein kinase kinase 1 (Homo sapiens) (UniProt Q02750); assay: Inhibition of MEK1 (unknown origin) at 10 uM after 40 mins by scintillation counting analysis
[20] = molecular target: Serine/threonine-protein kinase mTOR (Homo sapiens, UniProt P42345); assay: Inhibition of mTOR (unknown origin) at 10 uM after 40 mins by scintillation counting analysis
[21] = molecular target: cAMP-dependent protein kinase (PKA) (Homo sapiens) (UniProt P22694+P17612+P22612); assay: Inhibition of PKA (unknown origin) at 10 uM after 40 mins by scintillation counting analysis; assay type: protein assay
[22] = molecular target: Serine/threonine-protein kinase PLK1 (Homo sapiens) (UniProt P53350); assay: Inhibition of PLK1 (unknown origin) at 10 uM after 40 mins by scintillation counting analysis
[23] = molecular target: RAF proto-oncogene serine/threonine-protein kinase (Homo sapiens, UniProt P04049); assay: Inhibition of RAF1 (unknown origin) at 10 uM after 40 mins by scintillation counting analysis
[24] = molecular target: Macrophage-stimulating protein receptor (Homo sapiens) (UniProt Q04912); assay: Inhibition of RON (unknown origin) at 10 uM after 40 mins by scintillation counting analysis
[25] = molecular target: Proto-oncogene tyrosine-protein kinase ROS (Homo sapiens) (UniProt P08922); assay: Inhibition of ROS1 (unknown origin) at 10 uM after 40 mins by scintillation counting analysis
[26] = molecular target: Tyrosine-protein kinase SYK (Homo sapiens) (UniProt P43405); assay: Inhibition of SYK (unknown origin) at 10 uM after 40 mins by scintillation counting analysis
[27] = molecular target: T1, Macrophage colony-stimulating factor 1 receptor; assay: Inhibition of FMS (unknown origin) after 40 mins by scintillation counting analysis
[28] = molecular target: Tyrosine-protein kinase ABL1 (Homo sapiens) (UniProt P00519); assay: Inhibition of ABL1 (unknown origin) at 10 uM after 40 mins by scintillation counting analysis
[29] = molecular target: Tyrosine-protein kinase HCK (Homo sapiens) (UniProt P08631); assay: Inhibition of HCK (unknown origin) at 10 uM after 40 mins by scintillation counting analysis
[30] = molecular target: Proto-oncogene tyrosine-protein kinase Src (Homo sapiens) (UniProt P12931); assay: Inhibition of c-SRC (unknown origin) at 10 uM after 40 mins by scintillation counting analysis
Sequence of Proto-oncogene tyrosine-protein kinase Src (Homo sapiens) (P12931 2-536 limits assumed): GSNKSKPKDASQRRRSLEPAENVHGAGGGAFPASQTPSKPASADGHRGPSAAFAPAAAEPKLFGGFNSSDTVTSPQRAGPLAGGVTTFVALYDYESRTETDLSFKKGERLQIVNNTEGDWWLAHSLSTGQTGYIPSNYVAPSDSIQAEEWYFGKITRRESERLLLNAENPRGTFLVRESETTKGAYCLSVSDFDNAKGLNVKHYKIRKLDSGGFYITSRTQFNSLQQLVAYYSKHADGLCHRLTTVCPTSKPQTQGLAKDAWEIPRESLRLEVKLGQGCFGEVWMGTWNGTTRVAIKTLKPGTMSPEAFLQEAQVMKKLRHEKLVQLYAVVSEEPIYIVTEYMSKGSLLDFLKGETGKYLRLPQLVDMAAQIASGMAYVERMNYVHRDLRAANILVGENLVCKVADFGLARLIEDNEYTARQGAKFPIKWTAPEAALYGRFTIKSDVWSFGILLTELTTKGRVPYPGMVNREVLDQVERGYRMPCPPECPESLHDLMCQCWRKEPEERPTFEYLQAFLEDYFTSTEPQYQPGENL

[31] = molecular target: Tyrosine-protein kinase JAK1 (Homo sapiens) (UniProt P23458); assay: Inhibition of JAK1 (unknown origin) at 10 uM after 40 mins by scintillation counting analysis
[32] = molecular target: Protein kinase C (PKC) (Homo sapiens) (UniProt O94806+P41743+P17252+P05129+Q05655+P05771+Q05513+Q02156+P24723+Q15139+Q04759); assay: Inhibition of PKC (unknown origin) at 10 uM after 40 mins by scintillation counting analysis
[33] = species on record: Homo sapiens; assay: Inhibition of Pi3K (unknown origin) at 10 uM after 40 mins by scintillation counting analysis
[34] = molecular target: Platelet-derived growth factor receptor alpha (Homo sapiens) (UniProt P16234); assay: Inhibition of PDGFRalpha (unknown origin) at 10 uM after 40 mins by scintillation counting analysis
[35] = molecular target: Platelet-derived growth factor receptor beta (Homo sapiens) (UniProt P09619); assay: Inhibition of PDGFRbeta (unknown origin) at 10 uM after 40 mins by scintillation counting analysis
[36] = molecular target: Angiopoietin-1 receptor (Homo sapiens) (UniProt Q02763); assay: Inhibition of TIE2 (unknown origin) at 10 uM after 40 mins by scintillation counting analysis

Structure (SMILES): Cc1ccccc1C(=O)Nc1cnoc1C
- inhibition [1]: inactive
- inhibition [2]: inactive
- inhibition [3]: inactive
- inhibition [4]: inactive
- inhibition [5]: inactive
- inhibition [6]: inactive
- inhibition [7]: inactive
- inhibition [8]: inactive
- inhibition [9]: inactive
- inhibition [10]: inactive
- inhibition [11]: inactive
- inhibition [12]: inactive
- inhibition [13]: inactive
- inhibition [14]: inactive
- inhibition [15]: inactive
- inhibition [16]: inactive
- inhibition [17]: inactive
- inhibition [18]: inactive
- inhibition [19]: inactive
- inhibition [20]: inactive
- inhibition [21]: inactive
- inhibition [22]: inactive
- inhibition [23]: inactive
- inhibition [24]: inactive
- inhibition [25]: inactive
- inhibition [26]: inactive
- IC50 [27]: 216 nM
- inhibition [28]: inactive
- inhibition [29]: inactive
- inhibition [30]: inactive
- inhibition [31]: inactive
- inhibition [32]: inactive
- inhibition [33]: inactive
- inhibition [34]: inactive
- inhibition [35]: inactive
- inhibition [36]: inactive
